Measured values from patent US11866450B2, “Modulators of Cystic Fibrosis Transmembrane Conductance regulator, pharmaceutical compositions, methods of treatment, and process for making the modulators” (priority 2018, dated 2024).
pEC50: −log10 of the molar value. Where two headings read alike, the source gives them in different places.

Key:
[1] = snar bond
[2] = molecular target: CFTR-mediated chloride transport (Homo sapiens, UniProt P13569); format: cell-based; conditions: enteroid cells incubated with test compound 18-24 hours, acute 10 μM forskolin and 300 nM Compound III; for Max. Activity: % of chloride transport with 3 μM Compound A, 3 μM Compound II and 300 nM acute Compound III triple combination control
CFTR-mediated chloride transport, sequence (P13569 whole entry, looked up): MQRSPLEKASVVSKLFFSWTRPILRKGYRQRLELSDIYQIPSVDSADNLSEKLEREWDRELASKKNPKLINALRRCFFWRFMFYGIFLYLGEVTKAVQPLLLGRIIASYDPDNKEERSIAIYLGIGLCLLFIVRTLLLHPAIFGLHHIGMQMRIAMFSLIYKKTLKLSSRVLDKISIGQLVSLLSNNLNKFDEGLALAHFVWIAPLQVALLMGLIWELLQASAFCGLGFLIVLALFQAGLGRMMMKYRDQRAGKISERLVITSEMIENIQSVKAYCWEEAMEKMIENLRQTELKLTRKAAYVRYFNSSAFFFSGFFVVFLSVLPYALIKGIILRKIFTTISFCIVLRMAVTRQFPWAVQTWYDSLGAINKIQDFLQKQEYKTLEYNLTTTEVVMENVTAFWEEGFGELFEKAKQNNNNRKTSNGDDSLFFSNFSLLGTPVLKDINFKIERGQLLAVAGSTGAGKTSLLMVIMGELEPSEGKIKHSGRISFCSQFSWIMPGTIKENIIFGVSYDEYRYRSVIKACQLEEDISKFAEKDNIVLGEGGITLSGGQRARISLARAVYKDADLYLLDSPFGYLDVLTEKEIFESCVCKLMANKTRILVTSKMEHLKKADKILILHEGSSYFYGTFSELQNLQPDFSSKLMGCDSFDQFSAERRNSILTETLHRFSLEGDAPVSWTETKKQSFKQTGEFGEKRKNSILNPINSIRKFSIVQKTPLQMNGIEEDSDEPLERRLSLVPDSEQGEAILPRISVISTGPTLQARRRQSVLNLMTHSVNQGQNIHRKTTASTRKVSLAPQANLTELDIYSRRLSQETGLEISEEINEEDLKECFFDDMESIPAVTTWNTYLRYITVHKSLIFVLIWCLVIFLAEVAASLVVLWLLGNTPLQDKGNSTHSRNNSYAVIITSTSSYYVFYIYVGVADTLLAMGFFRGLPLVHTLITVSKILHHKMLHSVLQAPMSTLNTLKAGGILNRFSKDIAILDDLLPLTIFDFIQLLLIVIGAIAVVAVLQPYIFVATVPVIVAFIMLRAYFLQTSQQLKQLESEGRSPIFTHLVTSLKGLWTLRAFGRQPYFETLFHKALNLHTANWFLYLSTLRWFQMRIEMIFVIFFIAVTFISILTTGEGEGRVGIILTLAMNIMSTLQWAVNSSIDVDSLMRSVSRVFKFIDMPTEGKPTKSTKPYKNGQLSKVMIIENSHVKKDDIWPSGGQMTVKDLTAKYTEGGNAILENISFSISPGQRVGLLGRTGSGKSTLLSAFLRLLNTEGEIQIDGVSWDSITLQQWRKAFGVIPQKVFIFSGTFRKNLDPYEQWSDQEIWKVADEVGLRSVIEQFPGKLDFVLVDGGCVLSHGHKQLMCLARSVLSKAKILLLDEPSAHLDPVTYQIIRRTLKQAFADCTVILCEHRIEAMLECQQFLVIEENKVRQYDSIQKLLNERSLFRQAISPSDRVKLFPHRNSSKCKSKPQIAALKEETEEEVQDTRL
Method in brief: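 Membrane-potential fluorescence AUC over 15 min quantified CFTR chloride transport after acute forskolin (10 μM), IBMX (100 μM) and Compound III (300 nM) in chloride-free buffer. Human enteroid cells were pretreated with compound for 18–24 h; % Activity is relative to 3 μM Compound A + 3 μM Compound II + 300 nM Compound III.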

[3] = snar bond, K2CO3/CsF/3A MS, DMSO, 150.0 °C

Compound: CC(C)(C)CCCOC1CCN(c2ccc3c(n2)N2C[C@@H](CCCNc4cccc(n4)S(=O)(=O)NC3=O)CC2(C)C)C1=O (single isomer, unassigned; diastereomer 2)
- ring closure, isolated yield ([1]; from 2-chloro-6-[3-(4,4-dimethylpentoxy)-2-oxo-pyrrolidin-1-yl]-N-[[6-[3-[(3S)-5,5-dimethylpyrrolidin-3-yl]propylamino]-2-pyridyl]sulfonyl]pyridine-3-carboxamide (dihydrochloride salt), 15-membered ring, K2CO3, NMP, 24.7 mM, 155.0 °C): 19%

Compound: CC1(C)CC2CCCCNc3ccc(cn3)S(=O)(=O)NC(=O)c3ccc(-n4ccc(OCC5C6(CC6)C56CC6)n4)nc3N1C2 (stereo not shown)
- ring closure, isolated yield ([1]; from 2-chloro-N-[[6-[4-(5,5-dimethylpyrrolidin-3-yl)butylamino]-3-pyridyl]sulfonyl]-6-[3-(dispiro[2.0.2.1]heptan-7-ylmethoxy)pyrazol-1-yl]pyridine-3-carboxamide (dihydrochloride salt), 17-membered ring, K2CO3/CsF, NMP, 115.5 mM): 22%

Compound: [2H]C([2H])(Oc1ccn(-c2ccc3c(n2)N2C[C@@H](CCCNc4cccc(n4)S(=O)(=O)NC3=O)CC2(C)C)n1)C([2H])([2H])C1C2(CC2)C12CC2
- ring closure, isolated yield ([1]; from [2H]C([2H])(Oc1ccn(-c2ccc(C(=O)NS(=O)(=O)c3cccc(NCCC[C@@H]4CN(C(=O)OC(C)(C)C)C(C)(C)C4)n3)c(Cl)n2)n1)C([2H])([2H])C1C2(CC2)C12CC2, 15-membered ring, K2CO3/3A MS, NMP, 22.2 mM, 155.0 °C, 2 steps): 60%

Compound: CC1(C)C[C@@H]2CCCNc3cccc(n3)S(=O)(=O)NC(=O)c3ccc(Cl)nc3N1C2
- ring closure, isolated yield ([1]; from 2,6-dichloro-N-[[6-[3-[(3S)-5,5-dimethylpyrrolidin-3-yl]propylamino]-2-pyridyl]sulfonyl]pyridine-3-carboxamide (dihydrochloride salt), 15-membered ring, K2CO3/CsF/3A MS, NMP, 113.8 mM, 150.0 °C): 54%

Compound: CC1(C)C[C@@H]2CCCNc3nc(ccc3OCc3ccccc3)S(=O)(=O)NC(=O)c3ccc(-n4ccc(OCCCC5(C(F)(F)F)CC5)n4)nc3N1C2
- ring closure, isolated yield ([1]; from CC1(C)CC(CCCNc2nc(S(=O)(=O)NC(=O)c3ccc(-n4ccc(OCCCC5(C(F)(F)F)CC5)n4)nc3Cl)ccc2OCc2ccccc2)CN1, 15-membered ring, K2CO3/CsF, DMSO, 17.7 mM, 160.0 °C, 15.0 h): 82%

Compound: racemic 8-[3-(2-{dispiro[2.0.2.1]heptan-7-yl}ethoxy)-1H-pyrazol-1-yl]-16,16-difluoro-12,12-dimethyl-2λ^6-thia-3,9,11,18,23-pentaazatetracyclo[17.3.1.111,14.05,10]tetracosa-1(22),5,7,9,19(23),20-hexaene-2,2,4-trione
- ring closure, isolated yield ([1]; 15-membered ring, K2CO3, NMP, 31.1 mM, 150.0 °C): 83%

Compound: CC1(C)C[C@@H]2CCCNc3ccc(OCc4ccccc4)c(n3)S(=O)(=O)NC(=O)c3ccc(-n4ccc(OCCC5C6(CC6)C56CC6)n4)nc3N1C2
- ring closure, isolated yield ([1]; from CC1(C)C[C@H](CCCNc2ccc(OCc3ccccc3)c(S(=O)(=O)NC(=O)c3ccc(-n4ccc(OCCC5C6(CC6)C56CC6)n4)nc3Cl)n2)CN1, 15-membered ring, K2CO3, NMP, 57.2 mM, 150.0 °C, 20.0 h): 37%

Compound: CC1(C)CC2CCCCCNc3cccc(n3)S(=O)(=O)NC(=O)c3ccc(-n4ccc(OCCC5(C(F)(F)F)CC5)n4)nc3N1C2 (single isomer, unassigned; enantiomer 1)
- ring closure, isolated yield ([1]; from CC1(C)CC(CCCCCNc2cccc(S(=O)(=O)NC(=O)c3ccc(-n4ccc(OCCC5(C(F)(F)F)CC5)n4)nc3Cl)n2)CN1, 17-membered ring, K2CO3/CsF/3A MS, DMSO, 35.8 mM, 165.0 °C, 16.0 h): 47%

Compound: CC1(C)CC2CCCn3ccc(n3)S(=O)(=O)NC(=O)c3ccc(-n4ccc(OCCC5C(C)(C)C5(C)C)n4)nc3N1C2 (stereo not shown)
- ring closure, isolated yield ([1]; from CC(C)(C)OC(=O)N1CC(CCCn2ccc(S(=O)(=O)NC(=O)c3ccc(-n4ccc(OCCC5C(C)(C)C5(C)C)n4)nc3Cl)n2)CC1(C)C, 14-membered ring, K2CO3/3A MS, NMP, 49.2 mM, 160.0 °C, 2 steps): 20%

Compound: CC1(C)CCC2CCCNc3cccc(n3)S(=O)(=O)NC(=O)c3ccc(-n4ccc(OCC5C6(CC6)C56CC6)n4)nc3N21 (stereo not shown)
- ring closure, isolated yield ([1]; from 2-chloro-N-[[6-[3-(5,5-dimethylpyrrolidin-2-yl)propylamino]-2-pyridyl]sulfonyl]-6-[3-(dispiro[2.0.2.1]heptan-7-ylmethoxy)pyrazol-1-yl]pyridine-3-carboxamide (dihydrochloride salt), 14-membered ring, K2CO3/CsF, NMP, 123.1 mM): 41%

Compound: 12,12,19-trimethyl-8-(3-{2-[1-(trifluoromethyl)cyclopropyl]ethoxy}-1H-pyrazol-1-yl)-2λ^6-thia-3,9,11,19,21-pentaazatetracyclo[18.2.2.111,14.05,10]pentacosa-1(23),5,7,9,20(24),21-hexaene-2,2,4-trione (dihydrochloride salt)
- ring closure, isolated yield ([1]; 17-membered ring, K2CO3/CsF, DMSO, 42.1 mM, 150.0 °C): 39%

Compound: CC1(C)CC2CC(F)CNc3cccc(n3)S(=O)(=O)NC(=O)c3ccc(-n4ccc(OCCC5C6(CC6)C56CC6)n4)nc3N1C2 (stereo not shown)
- ring closure, isolated yield ([1]; from 2-chloro-N-[[6-[[3-(5,5-dimethylpyrrolidin-3-yl)-2-fluoro-propyl]amino]-2-pyridyl]sulfonyl]-6-[3-(2-dispiro[2.0.2.1]heptan-7-ylethoxy)pyrazol-1-yl]pyridine-3-carboxamide (dihydrochloride salt), 15-membered ring, K2CO3, NMP, 32.3 mM, 150.0 °C): 76%

Compound: CC1(C)C[C@@H]2CCCNc3cccc(n3)S(=O)(=O)NC(=O)c3ccc(N4CCC(OCCC5C6(CC6)C56CC6)C4=O)nc3N1C2 (stereo partly shown)
- ring closure, isolated yield ([1]; from 2-chloro-N-[[6-[3-[(3S)-5,5-dimethylpyrrolidin-3-yl]propylamino]-2-pyridyl]sulfonyl]-6-[3-(2-dispiro[2.0.2.1]heptan-7-ylethoxy)-2-oxo-pyrrolidin-1-yl]pyridine-3-carboxamide (dihydrochloride salt), 15-membered ring, K2CO3, NMP, 24.0 mM, 150.0 °C): 52%

Compound: CC1(C)CC2CN1c1nc(-n3ccc(OCCC4(C(F)(F)F)CC4)n3)ccc1C(=O)NS(=O)(=O)c1cccc(n1)NCCO2 (stereo not shown) [Compound 69, 12,12-dimethyl-8-(3-{2-[1-(trifluoromethyl)cyclopropyl]ethoxy}-1H-pyrazol-1-yl)-15-oxa-2λ^6-thia-3,9,11,18,23-pentaazatetracyclo[17.3.1.111,14.05,10]tetracosa-1(22),5(10),6,8,19(23),20-hexaene-2,2,4-trione]
- pEC50 [2]: > 6.00
- Max. Activity [2]: +++ (+++ is >60%)
- ring closure, yield after HPLC ([3]; from CC(C)(C)OC(=O)N1CC(OCCNc2cccc(S(=O)(=O)NC(=O)c3ccc(-n4ccc(OCCC5(C(F)(F)F)CC5)n4)nc3Cl)n2)CC1(C)C, 15-membered ring, HCl (Boc off), 62.3 mM, 2 steps): 61%

Compound: Cc1nn2cc1S(=O)(=O)NC(=O)c1ccc(-n3ccc(OCC(C)(C)C(F)(F)F)n3)nc1N1CC(CCC2)CC1(C)C (stereo not shown) [Compound 281, 12,20,20-trimethyl-4-[3-(3,3,3-trifluoro-2,2-dimethylpropoxy)-1H-pyrazol-1-yl]-10λ^6-thia-1,3,9,13,14-pentaazatetracyclo[16.2.1.111,14.02,7]docosa-2,4,6,11(22),12-pentaene-8,10,10-trione]
- pEC50 [2]: 5.52 to 6.00
- Max. Activity [2]: + (+ is <30%)
- ring closure, yield after HPLC ([3]; from Cc1nn(CCCC2CNC(C)(C)C2)cc1S(=O)(=O)NC(=O)c1ccc(-n2ccc(OCC(C)(C)C(F)(F)F)n2)nc1Cl, 14-membered ring, 25.9 mM): 17%

Compound: CC1(C)CC2CCCCNc3ccc(nc3)S(=O)(=O)NC(=O)c3ccc(-n4ccc(OCCC5(C(F)(F)F)CC5)n4)nc3N1C2 (stereo not shown) [Compound 123, 12,12-Dimethyl-8-(3-{2-[1-(trifluoromethyl)cyclopropyl]ethoxy}-1H-pyrazol-1-yl)-2λ^6-thia-3,9,11,19,22-pentaazatetracyclo[18.2.2.111,14.05,10]pentacosa-1(22),5(10),6,8,20,23-hexaene-2,2,4-trione]
- pEC50 [2]: > 6.00
- Max. Activity [2]: +++ (+++ is >60%)
- ring closure, yield after HPLC ([3]; from CC(C)(C)OC(=O)N1CC(CCCCNc2ccc(S(=O)(=O)NC(=O)c3ccc(-n4ccc(OCCC5(C(F)(F)F)CC5)n4)nc3Cl)nc2)CC1(C)C, 17-membered ring, 110.5 mM, 2 steps): 4%

Compound: Cc1cn2nc1S(=O)(=O)NC(=O)c1ccc(-n3ccc(OCCC4(C(F)(F)F)CC4)n3)nc1N1CC(CCC2)CC1(C)C (stereo not shown) [Compound 199, 12,20,20-trimethyl-4-(3-{2-[1-(trifluoromethyl)cyclopropyl]ethoxy}-1H-pyrazol-1-yl)-10λ^6-thia-1,3,9,14,22-pentaazatetracyclo[16.2.1.111,14.02,7]docosa-2(7),3,5,11(22),12-pentaene-8,10,10-trione]
- pEC50 [2]: > 6.00
- Max. Activity [2]: ++ (++ is 30-60%)
- ring closure, yield after HPLC ([3]; from Cc1cn(CCCC2CNC(C)(C)C2)nc1S(=O)(=O)NC(=O)c1ccc(-n2ccc(OCCC3(C(F)(F)F)CC3)n2)nc1Cl, 14-membered ring, 27.4 mM): 12%

Compound: [2H]C1(CCOc2ccn(-c3ccc4c(n3)N3C[C@@H](CCCNc5cccc(n5)S(=O)(=O)NC4=O)CC3(C)C)n2)C2(CC2)C12CC2 [Compound 253, (14S)-8-(3-{2-[(7-deuterio)dispiro[2.0.2.1]heptan-7-yl]ethoxy}-1H-pyrazol-1-yl)-12,12-dimethyl-2λ^6-thia-3,9,11,18,23-pentaazatetracyclo[17.3.1.111,14.05,10]tetracosa-1(22),5,7,9,19(23),20-hexaene-2,2,4-trione]
- pEC50 [2]: > 6.00
- Max. Activity [2]: +++ (+++ is >60%)
- ring closure, yield after HPLC ([3]; from [2H]C1(CCOc2ccn(-c3ccc(C(=O)NS(=O)(=O)c4cccc(NCCC[C@@H]5CN(C(=O)OC(C)(C)C)C(C)(C)C5)n4)c(Cl)n3)n2)C2(CC2)C12CC2, 15-membered ring, 20.4 mM, 2 steps): 43%

Compound: CC(C)COc1cc(F)cc(-c2ccc3c(n2)N2C[C@@H](CCCNc4cccc(n4)S(=O)(=O)NC3=O)CC2(C)C)c1 [Compound 224, (14S)-8-[3-Fluoro-5-(2-methylpropoxy)phenyl]-12,12-dimethyl-2λ^6-thia-3,9,11,18,23-pentaazatetracyclo[17.3.1.111,14.05,10]tetracosa-1(22),5,7,9,19(23),20-hexaene-2,2,4-trione]
- pEC50 [2]: > 6.00
- Max. Activity [2]: +++ (+++ is >60%)
- ring closure, yield after HPLC ([3]; from CC(C)COc1cc(F)cc(-c2ccc(C(=O)NS(=O)(=O)c3cccc(NCCC[C@@H]4CN(C(=O)OC(C)(C)C)C(C)(C)C4)n3)c(Cl)n2)c1, 15-membered ring, 30.6 mM, 2 steps): 14%
